Tests used:
[1] = molecular target: T1, Rat adenosine A2A receptor (Rattus norvegicus, UniProt P30543); test: Adenosine A2A receptor binding test (3H-CGS21680 binding, rat corpus striatum membranes); details: test compound 10^−7 mol/L, 25° C., 120 minutes, read-out: Rat adenosine A2A receptor binding inhibition rate (%) (10^−7 mol/L)
T1 construct: tissue Nippon SLC (animals); host or cells: rat (SD) corpus striatum membrane preparation
Procedure: This test was carried out in a similar manner to a Bruns et al's method (Molecular Pharmacology, Vol. 29, p. 331, 1986).
Corpus striatum of a rat (SD rat, by Nippon SLC) was suspended in 50 mL of an ice-cooled 50 mmol/L tris(hydroxymethyl)aminomethane hydrochloride (Tris-HCl) buffer (pH 7.7) using a polytron homogenizer (by Kinematica). The resulting suspension was centrifuged (48,000×g, 20 minutes), and the resulting precipitate was resuspended by adding the same amount of a 50 mmol/L Tris-HCl buffer, followed by centrifugation under the same condition. The resulting final precipitate was suspended by adding a 50 mmol/L Tris-HCl buffer [containing 10 mmol/L magnesium chloride, adenosine deaminase 0.02 units/mg tissue (by Sigma)] thereto so that the tissue concentration was 5 mg (wet weight)/mL.
To 100 μl, of the above purified cell suspension, 80 μL (final concentration: […]) of tritium-labeled CGS-21680 {^3H-2-[p-(2-carboxyethyl)phenethylamino]-5′-(N-ethylcarboxamido)-adenosine: 40 curies/mmol: by New England Nuclear [The Journal of Pharmacology and Experimental Therapeutics, Vol. 251, p. 888, 1989]) and 20 μL of a test compound solution (10^−7 mol/L; a solution of a test compound in DMSO was diluted with a Tris-HCl buffer) were added. The resulting mixture was allowed to stand at 25° C. for 120 minutes, followed by rapid suction filtration through a glass fiber paper filter (GF/C; by Whatman). The filter was immediately washed three times with 200 μL of an ice-cooled 50 mmol/L Tris-HCl buffer. The glass fiber paper filter was transferred into a vial, Microscinti (by Perkin Elmer) was added thereto, and the radioactivity level was measured with Topcount (by Perkin Elmer).
The inhibition rate of the test compound to the adenosine A2A receptor binding (3H-CGS21680 binding) was calculated according to the following equation.
Inhibition rate (%)={1−[(Amount of binding in the presence of compound)−(Amount of non-specific binding)]/[(Amount of total binding)−(Amount of non-specific binding)]}×100
Amount of total binding means the ^3H-CGS21680 binding radioactivity content in the absence of the test compound. Amount of non-specific binding means the ^3H-CGS21680 binding radioactivity content in the presence of 100 μmol/L cyclopentyladenosine (CPA; by Sigma). Amount of binding in the presence of compound means the ^3H-CGS21680 binding radioactivity content in the presence of 10^−7 mol/L, of the test compound.

[2] = tested on: CGS21680-induced catalepsy; test: Effect on CGS21680-induced catalepsy; format: in vivo, male ddY mice; details: mice; 10 mg/kg orally 30 minutes before i.c.v. CGS21680 10 μg/20 μL; scored 1 hour after administration; 80% or more judged active
Procedure: Parkinson's disease is motor dysfunction based on the degeneration and cell death of the nigrostriatal dopaminergic neuron. […] Therefore, it is considered that the adenosine A2A receptor functions to promote the output of GABAergic neurons from the corpus striatum into the external segment of globus pallidus, and as a result, catalepsy is induced by the administration of CGS21680.
The experiment was carried out using 10 male ddY mice of 5 weeks of age (body weight, 22 to 25 g, by Nippon SLC) per group. CGS21680 (by Kyowa Hakko Kogyo) was dissolved in physiological saline (by Otsuka Pharmaceutical), and intracerebroventricularly injected to the mice in an amount of 10 μg/20 μL. The test compound was used by being suspended in distilled water containing 0.5 w/v % methyl cellulose 400 cP (hereinafter abbreviated as MC) (by Otsuka Pharmaceutical). […] At 1 hour after the administration of the test compound, the degree of catalepsy was measured with respect to each of the mice such that a pair of only forelimbs and a pair of only hindlimbs of each mouse were placed by turns on a vertically installed acrylic stand with a height of 4.5 cm and a width of 1.0 cm. […]
The catalepsy remission rate was calculated according to the following equation. […]

T1 sequence (P30543 whole entry): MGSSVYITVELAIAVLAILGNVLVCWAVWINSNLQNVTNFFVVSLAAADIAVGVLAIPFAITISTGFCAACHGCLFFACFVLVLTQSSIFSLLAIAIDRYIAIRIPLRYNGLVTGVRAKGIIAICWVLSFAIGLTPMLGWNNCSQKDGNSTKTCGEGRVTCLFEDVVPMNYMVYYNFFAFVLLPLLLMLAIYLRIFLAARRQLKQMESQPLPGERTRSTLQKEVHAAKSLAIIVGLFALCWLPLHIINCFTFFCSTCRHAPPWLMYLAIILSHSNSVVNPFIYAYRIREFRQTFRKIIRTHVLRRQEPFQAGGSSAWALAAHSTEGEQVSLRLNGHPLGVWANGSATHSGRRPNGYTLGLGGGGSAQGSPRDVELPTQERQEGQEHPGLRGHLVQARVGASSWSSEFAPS

SMILES	inhibition at 0.1 µM [1] [%]	melting point [°C]	catalepsy remission rate [2] [%]
O=C(c1sc(-c2nc3cnccc3[nH]2)nc1-c1ccco1)C1CCOCC1 [Compound 18, 4-(2-Furyl)-2-(imidazo[4,5-c]pyridin-2-yl)thiazol-5-yl tetrahydropyran-4-yl ketone]	81		
O=C(c1ccccn1)c1sc(-c2nc3c([nH]2)CSCC3)nc1-c1ccco1 [Compound 29, 4-(2-Furyl)-5-(pyridin-2-ylcarbonyl)-2-(3,4,6,7-tetrahydrothiopyrano[3,4-d]imidazol-2-yl)thiazole]	90		
O=C(Nc1ccccc1)c1nc(-c2ccco2)c(C(=O)C2CCOCC2)s1 [Compound 32, 4-(2 Furyl)-5-(tetrahydropyran-4-ylcarbonyl)thiazol-2-carboxylic acid phenylamide]	26		
COc1ccc(-c2c[nH]c(-c3nc(-c4ccco4)c(C(=O)C4CCOCC4)s3)n2)cc1 [Compound 19, 4-(2-Furyl)-2-[4-(4-methoxyphenyl)imidazol-2-yl]thiazol-5-yl tetrahydropyran-4-yl ketone]	63	178 to 180	
O=C(c1sc(-c2nc3ncccc3[nH]2)nc1-c1ccco1)C1CCOCC1 [Compound 17, 4-(2-Furyl)-2-(imidazo[4,5-b]pyridin-2-yl)thiazol-5-yl tetrahydropyran-4-yl ketone]			100
O=C(c1ccccn1)c1sc(-c2nc3ccccc3[nH]2)nc1-c1ccco1 [Compound 24, 4-(2-Furyl)-5-(pyridin-2 ylcarbonyl)-2-(2-benzimidazolyl)thiazole]	94		
CC(C)CNC(=O)c1nc(-c2ccco2)c(C(=O)C2CCOCC2)s1 [Compound 33, 4-(2-Furyl)-5-(tetrahydropyran-4-ylcarbonyl)thiazol-2-carboxylic acid isobutylamide]	50		

Reference: patent US20100280023A1, “THIAZOLE DERIVATIVES” (KYOWA HAKKO KOGYO CO., LTD., priority 2005, published 2010)
